Measured values reported in patent US8993762B2, “Total synthesis of thaxtomin A analogues and their intermediates” (Marrone Bio Innovations, Inc, priority 2013, dated 2015).

Columns and labels:
plant cells = conditions: Lawrence et al., 1990; cited from earlier work
mustard plants = assay: Comparison of herbicidal activity, track-sprayer application to mustard plants; assay type: in vivo; conditions: fifteen day mustard plants; sprayed at 0.25 and 1.0 mg/mL; counted on the 7th and 14th days; four replicates
Protocol: Synthesized thaxtomin A and thaxtomin A from fermentation were separately dissolved in ethanol first (final ethanol concentration in the spraying solution was 2%), then added into 0.2% Glycosperse O-20 water solution. Sonication completely dissolved the thaxtomin A. The concentration of thaxtomin A was 0.25 and 1.0 mg/mL. Water with 2% ethanol and 0.2% Glycosperse O-20 was used as a blank control. Fifteen day mustard plants were used in the experiments. Four replicates for each concentration of thaxtomin A were carried out. Spraying was performed using a Track Sprayer. The herbicidal activity was graded as percent control. Herbicidal activity was counted on the 7th and 14th days, respectively.

CN1C(=O)[C@](O)(Cc2cccc(O)c2)N(C)C(=O)[C@@H]1Cc1c[nH]c2cccc([N+](=O)[O-])c12 [Synthesized thaxtomin A, Thaxtomin A]
effect on plant cells (plant cells): hypertrophy of plant cells at nanomolar amounts | herbicidal activity graded as percent control, synthesized vs natural thaxtomin A (mustard plants): no significant difference

CN1C(=O)[C@](O)(Cc2cccc(O)c2)N(C)C(=O)[C@@H]1Cc1c[nH]c2cccc([N+](=O)[O-])c12 [thaxtomin A from fermentation, thaxtomin A]
herbicidal activity graded as percent control, synthesized vs natural thaxtomin A (mustard plants): no significant difference
